From patent publication US6709675B1, “Thixotropic formulations for filling capsules” (Pierre Fabre Medicament, priority 1998, dated 2004)
Where a name gives a salt, the structure may show the parent alone.

How the values were obtained:
[1] = physchem; settings: water
[2] = Solubility in water

Row | Compound | solubility [1] [mg/mL] | solubility in water [2] [mg/mL]
1 | CCN(CC)C(=O)C1(c2ccccc2)CC1CN (centres unmarked) [milnacipran hydrochloride] | 600 | 
2 | baquimast |  | 0.23
